# Laboratory results taken from paper PMC8424644, “Thermodynamic Stability and Speciation of Ga(III) and Zr(IV) Complexes with High-Denticity Hydroxamate Chelators” (Inorganic Chemistry, 2021).
# Marks after values point to notes of the source that are not given here.
# Columns and labels:
# Type in all cases: physicochemical
# [1] = Fe(III) complex stability, pH-dependent UV–vis titrations
# Description: To evaluate the thermodynamic stability of Ga(III) and Zr(IV) complexes of the investigated ligands, the binding properties and speciation of Fe(III) complexes have first been determined (all the details are given in the Supporting Information). There are several reasons for this protocol. First, (i) the electron configuration of Ga(III) (d^10) and Zr(IV) (d^0) hinders the attainment of spectral information for most of the complexes. Furthermore, (ii) both metal ions are highly acidic and they are readily hydrolyzed over almost the entire pH range. In addition, (iii) the high charge to size ratio of the Zr(IV) ion implies the formation of complexes with an exceptional thermodynamic stability (already at very low pH); as a consequence, the stability constants cannot be directly determined using standard potentiometric titrations. Thus, the thermodynamic stability constants of the Fe(III)-H3L1 and Fe(III)-H4L2 systems were first determined (using a combination of potentiometric and pH-dependent UV–vis titrations), followed by Fe(III)–Ga(III) and Fe(III)–Zr(IV) metal–metal competition experiments. […]
# [2] = pFe calculation (ligand sequestering ability); details: pH=7.4, cL=10 μM, metal 1 μM
# Description: Despite a large variety of PET chelators synthesized and tested in order to provide strong coordination of Ga(III) and Zr(IV) in vivo, until now it is has been hard to avoid the release of these metal ions in the body. Here we report two new Ga(III) and Zr(IV) hydroxamate chelators, designed to achieve an efficient sequestering of these metal ions but also to understand how the cyclization and the introduction of an additional hydroxamate group influences the stability of Zr(IV) complexes. Therefore, it is important to evaluate and compare the Ga(III)- and Zr(IV)-sequestering abilities of […] and […] with those of other chelators. […] page 15: 100 100 [ZrL4]+ [ZrL3]+ [ZrL4H ] -1 80 [ZrL3H ] 80 2+ -1 [ZrHL4] […] Experimental section. Ligands' sequestering ability Table S3. pFe values with various synthetic and biological chelators a Ligand pFe Chelating groups and ligands geometry […] 24.3 3 hydroxamate groups in a cyclic arrangement […] 23.3 4 hydroxamate groups in a linear arrangement […] 26.9 3 hydroxamate groups in a cyclic arrangement […] 23.61 3 hydroxamate groups in a linear arrangement […] DFOE 27.73 3 hydroxamate groups in a cyclic arrangement […] protonation and stability constants given in original publications; the hydrolysis constants of Fe(III) ions were taken from the literature14 and are given in the experimental section 15 (also on this page, place not known: […]
# [3] = pGa calculation (ligand sequestering ability); details: pGa = −log[Ga(III)free], pH 7.4, cL = 10 μM, cGa(III) = 1 μM
# Description: Despite a large variety of PET chelators synthesized and tested in order to provide strong coordination of Ga(III) and Zr(IV) in vivo, until now it is has been hard to avoid the release of these metal ions in the body. Here we report two new Ga(III) and Zr(IV) hydroxamate chelators, designed to achieve an efficient sequestering of these metal ions but also to understand how the cyclization and the introduction of an additional hydroxamate group influences the stability of Zr(IV) complexes. Therefore, it is important to evaluate and compare the Ga(III)- and Zr(IV)-sequestering abilities of H3L1 and H4L2 with those of other chelators. However, the direct comparison of the stability constants of metal complexes is not straightforward, and other tools taking into account all the physicochemical properties of the ligands, i.e. their denticity, coordination modes, and acid–base properties, should be used.[52] In order to reliably compare the chelating abilities of H3L1 and H4L2 toward Ga(III) and Zr(IV) ions, the pM values were calculated. pFe was originally introduced by Raymond for the comparison of iron-siderophore systems;[53] pGa = −log[Ga(III)free] and pZr = −log[Zr(IV)free] were calculated at pH 7.4 with cL = 10 μM and cGa(III)/Zr(IV) = 1 μM (Table 2).
pK of [FeHL] ([FeHL1]+ to [FeL1]) ([1]; from UV–vis log β values (supplement)),pFe [2],pGa [3],"log β [FeHL] ([1]; pH-dependent UV–vis titrations, 25 °C, I = 0.1 M NaClO4)",SMILES
3.21,24.3,22.5,–,"O=C1CCCN(O)C(=O)CCCNC(=O)CCCN(O)C(=O)CCCNC(=O)CCCN(O)C(=O)CCCN1 [H3L1, 1,11,21-Trihydroxy-1,6,11,16,21,26-hexaazacyclotriacontane-2,7,12,17,22,27-hexaone]"
–,23.3,22.3,36.96(7) ^e,"N[C@H]1CCCCNC(=O)CCCN(O)C(=O)CCCNC(=O)CCCN(O)C(=O)CCCNC(=O)CCCN(O)C(=O)CCCNC(=O)CCCN(O)C(=O)CCCNC1=O [H4L2, (S)-43-Amino-6,16,26,36-tetrahydroxy-1,6,11,16,21,26,31,36,41-nonaazacycloheptatetracontane-2,7,12,17,22,27,32,37,42-nonaone]"
